For orientation: IC50 means the midpoint of a concentration-inhibition curve. A low value points to higher potency.

The record followed here is patent US20110152243A1, “NOVEL THIENOPYRROLE COMPOUNDS” (ABBOTT LABORATORIES, priority 2009, published 2011).

Sequence of PKCθ (Q04759 whole entry): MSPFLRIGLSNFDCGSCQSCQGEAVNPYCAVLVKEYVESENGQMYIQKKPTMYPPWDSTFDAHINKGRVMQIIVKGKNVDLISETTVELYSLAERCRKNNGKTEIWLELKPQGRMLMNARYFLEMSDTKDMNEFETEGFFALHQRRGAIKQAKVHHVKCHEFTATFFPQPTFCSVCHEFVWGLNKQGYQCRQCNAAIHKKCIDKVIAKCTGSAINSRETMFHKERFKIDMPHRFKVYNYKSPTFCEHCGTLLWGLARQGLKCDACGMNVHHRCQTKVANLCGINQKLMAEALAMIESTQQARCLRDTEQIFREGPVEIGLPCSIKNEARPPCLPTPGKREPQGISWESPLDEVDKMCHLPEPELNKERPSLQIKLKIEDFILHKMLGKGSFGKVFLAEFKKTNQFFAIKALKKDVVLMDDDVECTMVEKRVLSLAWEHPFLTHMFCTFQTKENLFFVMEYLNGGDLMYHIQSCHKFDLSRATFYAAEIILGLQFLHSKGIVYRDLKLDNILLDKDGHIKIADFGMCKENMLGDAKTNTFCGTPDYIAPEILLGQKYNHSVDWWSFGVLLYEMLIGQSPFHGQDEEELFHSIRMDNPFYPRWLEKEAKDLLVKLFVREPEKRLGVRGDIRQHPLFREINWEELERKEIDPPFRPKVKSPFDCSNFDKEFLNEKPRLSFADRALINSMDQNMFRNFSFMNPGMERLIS

This test concerns the target PKCθ (Homo sapiens, UniProt Q04759). The experiment in a line: PKCθ enzyme data at 1 mM ATP. The format is biochemical.
Take `CN(C)[C@H]1CC[C@@H](Cn2nc(C3=C(c4c[nH]c5sccc45)C(=O)NC3=O)c3ccccc32)CC1` [F.4.18]: the IC50 lay within 100 to 500 nM.

For the compound `CN1CCN(c2nc(C3=C(c4c[nH]c5sccc45)C(=O)NC3=O)c3cccn3n2)CC1` [F.4.36], the IC50 is below 100 nM.

The compound `CN(C)CC1CCN(c2nc(C3=C(c4c[nH]c5sccc45)C(=O)NC3=O)c3ccccc3n2)C1` (stereo not drawn) [E.1.28] returned an IC50 of 100 to 500 nM.

`Cc1nnc2n1CCN(c1nc(C3=C(c4c[nH]c5sccc45)C(=O)NC3=O)c3ccccc3n1)C2` [E.1.40] returned an IC50 below 100 nM.

Regarding `CN1CCN(c2nc(C3=C(c4c[nH]c5sccc45)C(=O)NC3=O)c3c(O)cccc3n2)CC1` [F.4.12], the IC50 fell in the range of 500 to 1000 nM.

As to `Cc1cccc2c(C3=C(c4c[nH]c5sccc45)C(=O)NC3=O)nc(N3CCN(C)CC3)nc12` [F.4.32], the IC50 lay within 500 to 1000 nM.

In the case of `O=C1NC(=O)C(c2c[nH]c3ccsc23)=C1c1nc(N2CCN3CCCC3C2)nc2ccccc12` (stereo not drawn) [E.2.10], the IC50 is below 100 nM.

In turn, `CC1(N)CCN(c2nc(C3=C(c4c[nH]c5sccc45)C(=O)NC3=O)c3ccccc3n2)CC1` [G.1.10] showed an IC50 below 100 nM.

As for `CC(O)c1ncc2n1CCN(c1nc(C3=C(c4c[nH]c5sccc45)C(=O)NC3=O)c3ccccc3n1)C2` (stereo not drawn) [E.1.52], the IC50 is below 100 nM.

`CN(C)Cc1ncc2n1CCN(c1nc(C3=C(c4c[nH]c5sccc45)C(=O)NC3=O)c3ccccc3n1)C2` [E.1.51] returned an IC50 below 100 nM.

As to `O=C1NC(=O)C(c2c[nH]c3ccsc23)=C1c1nc(N2CCN3CCC[C@@H]3C2)nc2ccccc12` [E.2.1, (R)-3-(2-(Hexahydropyrrolo[1,2-a]pyrazin-2(1H)-yl)quinazolin-4-yl)-4-(4H-thieno[3,2-b]pyrrol-6-yl)-1H-pyrrole-2,5-dione], the IC50 was below 100 nM.

As for `O=C1NC(=O)C(c2c[nH]c3sccc23)=C1c1nc(N2CCN(C3CC3)CC2)nc2ccccc12` [E.1.18], the IC50 was below 100 nM.

`COCCN1CCC(Cn2nc(C3=C(c4c[nH]c5sccc45)C(=O)NC3=O)c3ccccc32)C1` (stereo not drawn) [F.4.26] gave an IC50 of 100 to 500 nM.

On to `CN1CCCC(Cn2nc(C3=C(c4c[nH]c5sccc45)C(=O)NC3=O)c3ccccc32)C1` (stereo not drawn) [F.4.28], for which the IC50 was 100 to 500 nM.

On to `CN(C)C1CCN(c2nc(C3=C(c4c[nH]c5ccsc45)C(=O)NC3=O)c3ccccc3n2)CC1` [E.2.3], for which the IC50 was below 100 nM.

Consider `CC(C)N1CCN(c2nc(C3=C(c4c[nH]c5sccc45)C(=O)NC3=O)c3ccccc3n2)CC1` [E.1.21], for which the IC50 was below 100 nM.

`Cc1ncc2n1CCN(c1nc(C3=C(c4c[nH]c5sccc45)C(=O)NC3=O)c3ccccc3n1)C2` [E.1.26]: the IC50 was below 100 nM.

As for `O=C1NC(=O)C(c2c[nH]c3ccsc23)=C1c1nc(NC2CCNCC2)nc2ccccc12` [G.1.8], the half-maximal inhibitory concentration (IC50) was 100 to 500 nM.

Compound `O=C1NC(=O)C(c2nc(N3CCN4CCC[C@@H]4C3)nc3cccc(F)c23)=C1c1c[nH]c2ccsc12` [F.3.2, (R)-3-(5-Fluoro-2-(hexahydropyrrolo[1,2-a]pyrazin-2(1H)-yl)quinazolin-4-yl)-4-(4H-thieno[3,2-b]pyrrol-6-yl)-1H-pyrrole-2,5-dione] had an IC50 below 100 nM.

As for `CN1CCN(c2nc(C3=C(c4c[nH]c5sccc45)C(=O)NC3=O)c3ccsc3n2)CC1` [F.4.2, 3-(2-(4-Methylpiperazin-1-yl)thieno[2,3-d]pyrimidin-4-yl)-4-(6H-thieno[2,3-b]pyrrol-4-yl)-1H-pyrrole-2,5-dione], the IC50 was below 100 nM.

As for `CNC1(C)CCN(c2nc(C3=C(c4c[nH]c5sccc45)C(=O)NC3=O)c3ccccc3n2)CC1` [E.1.42], the IC50 lay in the range of 100 to 500 nM.

As for `CN1CCN(c2nc(C3=C(c4c[nH]c5sccc45)C(=O)NC3=O)c3ccccc3n2)CC1CO` (stereo not drawn) [E.1.45], the concentration for half-maximal inhibition (IC50) was below 100 nM.

For `O=C1NC(=O)C(c2c[nH]c3sccc23)=C1c1nc(N2CC[C@H](N3CCCC3)[C@H](F)C2)nc2ccccc12` [E.1.29], the IC50 lay within 100 to 500 nM.

Compound `O=C1NC(=O)C(c2c[nH]c3ccsc23)=C1c1nc(N2CCN3C(=O)CCC3C2)nc2ccccc12` (stereo not drawn) [E.2.9] registered an IC50 of 100 to 500 nM.

`CN1CCC(Cn2nc(C3=C(c4c[nH]c5sccc45)C(=O)NC3=O)c3ccccc32)CC1` [F.4.6] registered a concentration for half-maximal inhibition (IC50) below 100 nM.

As to `CN1CC[C@H](Cn2nc(C3=C(c4c[nH]c5sccc45)C(=O)NC3=O)c3ccccc32)[C@H](F)C1` (relative stereo) [F.4.4], the IC50 was below 100 nM.

Compound `COc1ccc2nc(N3CCN(C)CC3)nc(C3=C(c4c[nH]c5sccc45)C(=O)NC3=O)c2c1` [F.4.14] had an IC50 below 100 nM.

As to `O=C1NC(=O)C(c2c[nH]c3sccc23)=C1c1nc(N2CCc3nc[nH]c3C2)nc2ccccc12` [E.1.27], the IC50 was below 100 nM.

In turn, `O=C1NC(=O)C(c2c[nH]c3ccsc23)=C1c1nc(N2CCN3CCC[C@H]3C2)nc2ccccc12` [E.2.4] displayed an IC50 below 100 nM.

The compound `CN1CCN(c2nc3c(c(C4=C(c5c[nH]c6sccc56)C(=O)NC4=O)n2)CCC3)CC1` [F.4.10] showed an IC50 of 100 to 500 nM.

`CN(C)CCCCn1nc(C2=C(c3c[nH]c4sccc34)C(=O)NC2=O)c2ccccc21` [F.4.27] displayed a 50% inhibitory concentration (IC50) of 500 to 1000 nM.

The compound `O=C1NC(=O)C(c2nn(C[C@H]3CCNC[C@H]3F)c3ccccc23)=C1c1c[nH]c2sccc12` (relative stereo) [G.1.17] showed an IC50 below 100 nM.

Consider `CC(C1CCN(c2nc(C3=C(c4c[nH]c5sccc45)C(=O)NC3=O)c3ccccc3n2)CC1)N1CCCC1` (stereo not drawn) [E.1.4], for which the IC50 lay within 500 to 1000 nM.

As for `CC(C1CCN(c2nc(C3=C(c4c[nH]c5sccc45)C(=O)NC3=O)c3ccccc3n2)CC1)N(C)C` (stereo not drawn) [E.1.12], the IC50 was 100 to 500 nM.

The compound `O=C1NC(=O)C(c2c[nH]c3sccc23)=C1c1nc(N2CCN3CCC[C@H]3C2)nc2sccc12` [E.3.1] registered a half-inhibitory concentration (IC50) below 100 nM.

The compound `CN1CCN(c2nc(C3=C(c4c[nH]c5sccc45)C(=O)NC3=O)c3c(F)cccc3n2)CC1` [F.4.1, 3-(5-Fluoro-2-(4-methylpiperazin-1-yl)quinazolin-4-yl)-4-(6H-thieno[2,3-b]pyrrol-4-yl)-1H-pyrrole-2,5-dione] gave an IC50 below 100 nM.

On to `CN1CCC(Cn2cc(C3=C(c4c[nH]c5ccccc45)C(=O)NC3=O)c3ccsc32)CC1` [F.5.1], for which the IC50 is below 100 nM.

Regarding `O=C1CN(c2nc(C3=C(c4c[nH]c5sccc45)C(=O)NC3=O)c3ccccc3n2)CCN1` [E.1.7], the IC50 fell in the range of 500 to 1000 nM.

The compound `CN1CCN(c2nc(C3=C(c4c[nH]c5sccc45)C(=O)NC3=O)c3cc(Cl)ccc3n2)CC1` [F.4.13] returned an IC50 below 100 nM.

`CN1CCC(Cn2cc(C3=C(c4c[nH]c5sccc45)C(=O)NC3=O)c3ccccc32)CC1` [F.4.17] registered a half-maximal inhibitory concentration (IC50) below 100 nM.

For the compound `O=C1NC(=O)C(c2c3ccccc3nn2CC2CCNCC2)=C1c1c[nH]c2sccc12` [G.1.16], the IC50 lay in the range of 100 to 500 nM.

Regarding `O=C1NC(=O)C(c2c[nH]c3ccsc23)=C1c1nc(N2CCn3ccnc3C2)nc2ccccc12` [E.2.7], the IC50 was below 100 nM.

Consider `CN(C)C1CCN(c2nc(C3=C(c4c[nH]c5sccc45)C(=O)NC3=O)c3ccccc3n2)CC1CO` (stereo not drawn) [E.1.37], for which the IC50 was below 100 nM.

With `CCc1ncc2n1CCN(c1nc(C3=C(c4c[nH]c5sccc45)C(=O)NC3=O)c3ccccc3n1)C2` [E.1.47], the IC50 was below 100 nM.

`O=C1NC(=O)C(c2c[nH]c3sccc23)=C1c1nc(N2CCN(CCO)CC2)nc2ccccc12` [E.1.19] returned an IC50 below 100 nM.

In turn, `CN(C)[C@H]1CCN(c2nc(C3=C(c4c[nH]c5sccc45)C(=O)NC3=O)c3ccccc3n2)C[C@H]1F` [E.1.33] gave an IC50 of 100 to 500 nM.

`CC(C1CCN(c2nc(C3=C(c4c[nH]c5sccc45)C(=O)NC3=O)c3ccccc3n2)CC1)N1CCOCC1` (stereo not drawn) [E.1.2]: the IC50 lay in the range of 100 to 500 nM.

For `CN(C)[C@H]1CC[C@@H](n2nc(C3=C(c4c[nH]c5sccc45)C(=O)NC3=O)c3ccccc32)CC1` [F.4.5], the concentration for half-maximal inhibition (IC50) is below 100 nM.

On to `CNCC1CCN(c2nc(C3=C(c4c[nH]c5sccc45)C(=O)NC3=O)c3ccccc3n2)C1` (stereo not drawn) [G.1.14], for which the IC50 lay within 500 to 1000 nM.

`Cc1cc2c(C3=C(c4nc(N5CCN(C)CC5)nc5ccccc45)C(=O)NC3=O)c[nH]c2s1` [F.1.3] gave a half-inhibitory concentration (IC50) of 100 to 500 nM.

As for `Cn1cnc2c1CN(c1nc(C3=C(c4c[nH]c5sccc45)C(=O)NC3=O)c3ccccc3n1)CC2` [E.1.53], the IC50 is below 100 nM.

`CN(C)CCCn1nc(C2=C(c3c[nH]c4sccc34)C(=O)NC2=O)c2ccccc21` [F.4.29] registered an IC50 of 100 to 500 nM.

The compound `O=C1NC(=O)C(c2nc(N3CCN4CCC[C@@H]4C3)nc3cccc(F)c23)=C1c1c[nH]c2sccc12` [F.4.3, (R)-3-(5-Fluoro-2-(hexahydropyrrolo[1,2-a]pyrazin-2(1H)-yl)quinazolin-4-yl)-4-(6H-thieno[2,3-b]pyrrol-4-yl)-1H-pyrrole-2,5-dione] came in with an IC50 below 100 nM.

`O=C1NC(=O)C(c2c[nH]c3ccsc23)=C1c1nc(N2CC3CNCC3C2)nc2ccccc12` (stereo not drawn) [G.1.3]: the IC50 is 500 to 1000 nM.

The compound `O=C1NC(=O)C(c2c[nH]c3sccc23)=C1c1nc(N2CCC(N3CCC3)CC2)nc2ccccc12` [E.1.13] yielded an IC50 below 100 nM.

With `O=C1NC(=O)C(c2nn(CC3CCN(CCF)CC3)c3ccccc23)=C1c1c[nH]c2sccc12` [F.4.20], the IC50 lay within 100 to 500 nM.

Turning to `CN1CCC(C)(Cn2nc(C3=C(c4c[nH]c5sccc45)C(=O)NC3=O)c3ccccc32)CC1` [F.4.23], the IC50 was 100 to 500 nM.

The compound `CN1CCN(c2nc(C3=C(c4c[nH]c5ccsc45)C(=O)NC3=O)c3c(F)cccc3n2)CC1` [F.3.1, 3-(5-Fluoro-2-(4-methylpiperazin-1-yl)quinazolin-4-yl)-4-(4H-thieno[3,2-b]pyrrol-6-yl)-1H-pyrrole-2,5-dione] gave an IC50 below 100 nM.

Regarding `CN1CCN(c2nc(C3=C(c4c[nH]c5sccc45)C(=O)NC3=O)c3cc(F)ccc3n2)CC1` [F.4.15], the IC50 is below 100 nM.

On to `O=C1NC(=O)C(c2c[nH]c3ccsc23)=C1c1nc(NCC2CCCCN2)nc2ccccc12` (stereo not drawn) [G.1.9], for which the IC50 is 500 to 1000 nM.

`O=C1NC(=O)C(c2c[nH]c3ccsc23)=C1c1nc(N2CCC(N3CCOCC3)CC2)nc2ccccc12` [E.2.5] had an IC50 of 100 to 500 nM.

For the compound `O=C1NC(=O)C(c2c[nH]c3sccc23)=C1c1nc(N2CC[C@H](N3CCCC3)[C@@H](F)C2)nc2ccccc12` [E.1.30], the IC50 was below 100 nM.

Turning to `CC(C1CCN(C)CC1)n1nc(C2=C(c3c[nH]c4sccc34)C(=O)NC2=O)c2ccccc21` (stereo not drawn) [F.4.35], the IC50 was in the range of 500 to 1000 nM.
